From US20120301478A1, “Pharmaceutical for Preventing or Treating Disorders Accompanied by Ocular Angiogenesis and/or Elevated Ocular Vascular Permeability” (priority 2010, published 2012)

Tests used:
[1] = tested on: choroidal neovascularization (CNV) model; assay: Laser-induced choroidal neovascularization (CNV) mouse model, CNV volume (Experiment 1); assay type: in vivo, mouse (male C57BL/6J)
Source text: In the CNV model, macrophages migrate by the initiation of an inflammation by laser irradiation. Since VEGF are produced, neovascular vessels are generated, and increased vascular permeability is observed as the result thereof, the CNV model is one of models that produce VEGF. […] The both eyes of a male C57BL/6J mice having a body weight of about 20 g (6-week old) were irradiated with laser (irradiated by 4 to 6 spots per one eye) to induce CNV experimentally. As mentioned below, an anti-VEGF antibody and/or fidarestat were administered as a drug. […] As the anti-VEGF antibody, an anti-mouse VEGF antibody purchased from R&D Systems was used. The number of examples was three or four per a group, and the following four groups were set. […] After completion of the laser irradiation, the mice were bred by general breeding for 7 days, and thereafter the eye balls were excised and the volume of CNV appeared in the choroid was measured. […] The volume of CNV was measured by importing an image in the vicinity of CNV by a confocal laser microscope (Zeiss LSM5 Pascal) and using image analysis software (NIH Image J). […]

[2] = tested on: choroidal neovascularization (CNV) model, increased vascular permeability; assay: Laser-induced CNV mouse model, fluorescein-fluorescent fundus angiography, vascular permeability (Experiment 2); assay type: in vivo; settings: fidarestat forced oral 16 mg/kg twice a day (32 mg/kg/day); 7 days after laser irradiation
Description: An anti-VEGF antibody and/or fidarestat were administered to a mouse that had been treated to induce CNV in a similar manner to that in Experiment 1. […] The number of examples was three or four per a group, and the following five groups were set. […] The both eyes were photographed by an eye-fundus camera, and the obtained eye-ground picture was evaluated in a blinded manner according to the following criteria. • grade 0: nonleaky, no leakage from blood-vessel • grade 1: questionable leakage, weak leakage was observed • grade 2: leaky, leakage was observed • grade 3: pathologically significant leakage, clear leakage was observed on wide area The ratio of the number of the FA grade 3 lesions (%) in each eye was calculated, and the average value of the calculated rates in each group was obtained. […]

STZ-diabetic rat retina = settings: streptozotocin (STZ)-diabetic rat, cited from earlier work
[3] = injected in the vitreous body of a human; cited from earlier work

NC(=O)[C@@H]1C[C@]2(NC(=O)NC2=O)c2cc(F)ccc2O1 [fidarestat, (2S,4S)-6-fluoro-2′,5′-dioxospiro[chroman-4,4′-imidazolidine]-2-carboxamide]
dose at which the maximum medicinal effect is shown ([1]; CNV mouse model, fidarestat): 32 mg/kg/day
effect of suppressing CNV (CNV volume) compared to the untreated group ([1]; fidarestat 32 mg/kg/day in powder feedstuff, from 2 days before to 7 days after laser irradiation): significant effect of suppressing CNV was observed (p<0.05)
ratio of the number of the FA grade 3 lesions [2]: approximately the same rate as that in the 2 ng anti-VEGF antibody-administered group
overexpression of VEGF (STZ-diabetic rat retina; retina): suppresses
retinal oxidative stress (STZ-diabetic rat retina): suppresses

ranibizumab: typical anti-VEGF agent, anti-VEGF antibody used as intravitreal injection
disappearing half-life [3]: 9 days
